# Results taken from patent publication US11713307B2, “Heteroaryl-biphenyl amides for the treatment of PD-L1 diseases” (CHEMOCENTRYX, INC., priority 2019, dated 2023).
# Target: human PD-L1 (Homo sapiens (Human), UniProt Q9NZQ7)
# Assay: Enzyme-Linked Immunosorbent Assay—ELISA (PD-1/PD-L1 binding)
# Settings: plates coated with human PD-L1; Human PD-1 and biotin added; absorbance at 450 nm
# Procedure: 96 Well plates were coated with 1 μg/mL of human PD-L1 (obtained from R&D) in PBS overnight at 4° C. The wells were then blocked with 2% BSA in PBS (W/V) with 0.05% TWEEN-20 for 1 hour at 37° C. The plates were washed 3 times with PBS/0.05% TWEEN-20 and the compounds were serial diluted (1:5) in dilution medium and added to the ELISA plates. Human PD-1 and biotin 0.3 μg/mL (ACRO Biosystems) were added and incubated for 1 hour at 37° C. then washed 3 times with PBS/0.05% TWEEN-20. A second block was performed with 2% BSA in PBS (W/V)/0.05% TWEEN-20 for 10 min at 37° C. and the plates were washed 3 times with PBS/0.05% TWEEN-20. Streptavidin-HRP was added for 1 hour at 37° C. then the plates were washed 3 times with PBS/0.05% TWEEN-20. TMB substrate was added and reacted for 20 min at 37° C. A stop solution (2 N aqueous H2SO4) was added. The absorbance was read at 450 nm using a micro-plate spectrophotometer. The results are shown in Table 1: IC50 values are provided as follows: from 1000 to 10,000 nM (+); from 10 up to 1000 nM (++); less than 10 nM (+++).
# Chain of human PD-L1 (Q9NZQ7 19-239): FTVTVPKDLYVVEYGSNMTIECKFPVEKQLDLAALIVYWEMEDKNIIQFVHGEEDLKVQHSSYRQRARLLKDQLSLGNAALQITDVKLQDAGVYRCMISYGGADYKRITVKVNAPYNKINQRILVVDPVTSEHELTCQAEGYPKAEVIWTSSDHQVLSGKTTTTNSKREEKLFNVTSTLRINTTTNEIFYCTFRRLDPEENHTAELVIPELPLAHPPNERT
row,Compound,IC50
1,COc1nc(-c2cccc(-c3cccc(NC(=O)c4cn(C)c(=O)n(C)c4=O)c3C)c2Cl)ccc1CNCCO [Compound 1.056],< 10 nM
2,COc1nc(-c2cccc(-c3cccc(NC(=O)c4cn(C)c(=O)n(C)c4=O)c3Cl)c2Cl)ccc1CNCC(C)(C)C(N)=O [Compound 1.057],< 10 nM
3,COc1nc(-c2cccc(-c3cccc(NC(=O)c4cn(C)c(=O)n(C)c4=O)c3Cl)c2Cl)ccc1CN(C)C[C@@H]1CCC(=O)N1 [Compound 1.058],10 to 1000 nM
4,COc1nc(-c2cccc(-c3cccc(NC(=O)c4cn(C)c(=O)n(C)c4=O)c3F)c2Cl)ccc1CNC[C@@H]1CCC(=O)N1 [Compound 1.059],< 10 nM
5,COc1nc(-c2cccc(-c3cccc(NC(=O)c4cncn(C)c4=O)c3Cl)c2Cl)ccc1CNC[C@@H]1CCC(=O)N1 [Compound 1.060],< 10 nM
6,COc1nc(-c2cccc(-c3cccc(NC(=O)c4cn(C)c(=O)n(C)c4=O)c3)c2Cl)ccc1CNC[C@@H]1CCC(=O)N1 [Compound 1.061],< 10 nM
7,COc1nc(-c2cccc(-c3cccc(NC(=O)c4cn(C)c(=O)n(C)c4=O)c3C)c2C)ccc1CNC[C@@H]1CCC(=O)N1 [Compound 1.062],< 10 nM
8,COc1nc(-c2cccc(-c3cccc(NC(=O)c4cn(C)c(=O)n(C)c4=O)c3Cl)c2F)ccc1CNC[C@@H]1CCC(=O)N1 [Compound 1.063],< 10 nM
9,COc1nc(-c2cccc(-c3cccc(NC(=O)c4nn(C)c(=O)n(C)c4=O)c3Cl)c2Cl)ccc1CNC[C@@H]1CCC(=O)N1 [Compound 1.064],< 10 nM
10,COc1nc(-c2cccc(-c3cccc(NC(=O)c4c[nH]c(=O)n(C)c4=O)c3C)c2Cl)ccc1CNC[C@@H]1CCC(=O)N1 [Compound 1.065],< 10 nM
11,COc1nc(-c2cccc(-c3cccc(NC(=O)c4cn(C)c(=O)n(C)c4=O)c3Cl)c2Cl)ccc1CNC[C@H]1CCC(=O)N1 [Compound 1.066],< 10 nM
12,COc1nc(-c2cccc(-c3cccc(NC(=O)c4cn(C)c(=O)n(C)c4=O)c3Cl)c2)ccc1CNC[C@@H]1CCC(=O)N1 [Compound 1.067],< 10 nM
13,COc1nc(-c2cccc(-c3cccc(NC(=O)c4cn(C)c(=O)n(C)c4=O)c3Cl)c2C)ccc1CNC[C@@H]1CCC(=O)N1 [Compound 1.068],< 10 nM
14,COc1nc(-c2cccc(-c3cccc(NC(=O)c4cccn(C)c4=O)c3Cl)c2Cl)ccc1CNC[C@@H]1CCC(=O)N1 [Compound 1.069],< 10 nM
15,COc1nc(-c2cccc(-c3cccc(NC(=O)c4cn(C)c(=O)n(C)c4=O)c3Cl)c2Cl)ccc1CN[C@@](C)(CO)C(=O)O [Compound 1.070],< 10 nM
16,CCc1nc(-c2cccc(-c3cccc(NC(=O)c4cn(C)c(=O)n(C)c4=O)c3Cl)c2Cl)ccc1CN1CC(C(=O)O)C1 [Compound 1.071],< 10 nM

row,Compound,IC50
1,CCc1nc(-c2cccc(-c3cccc(NC(=O)c4cn(C)c(=O)n(C)c4=O)c3Cl)c2Cl)ccc1CN1CC(O)C1 [Compound 1.072],10 to 1000 nM
2,COc1nc(-c2cccc(-c3cccc(NC(=O)c4cn(C)c(=O)n(C)c4=O)c3Cl)c2Cl)ccc1CN1CC(NS(C)(=O)=O)C1 [Compound 1.073],< 10 nM
3,COc1nc(-c2cccc(-c3cccc(NC(=O)c4cn(C)c(=O)n(C)c4=O)c3Cl)c2Cl)ccc1CN1CC[C@@H](C(=O)O)C1 [Compound 1.074],< 10 nM
4,CCc1nc(-c2cccc(-c3cccc(NC(=O)c4cn(C)c(=O)n(C)c4=O)c3Cl)c2Cl)ccc1CN[C@@H]1CCOC[C@@H]1O [Compound 1.075],< 10 nM
5,CCc1nc(-c2cccc(-c3cccc(NC(=O)c4cn(C)c(=O)n(C)c4=O)c3Cl)c2Cl)ccc1CNC[C@@H]1CCC(=O)N1 [Compound 1.076],< 10 nM
6,CCc1nc(-c2cccc(-c3cccc(NC(=O)c4cn(C)c(=O)n(C)c4=O)c3Cl)c2Cl)cnc1CNC[C@@H]1CCC(=O)N1 [Compound 1.077],< 10 nM
7,COc1nc(-c2cccc(-c3cccc(NC(=O)c4cn(C)c(=O)n(C)c4=O)c3C)c2Cl)cnc1CN[C@@H]1CCOC[C@@H]1O [Compound 1.078],< 10 nM
8,COc1nc(-c2cccc(-c3cccc(NC(=O)c4cn(C)c(=O)n(C)c4=O)c3C)c2Cl)cnc1CNC[C@@H]1CCC(=O)N1 [Compound 1.079],< 10 nM
9,COc1cc(-c2cccc(-c3cccc(NC(=O)c4cn(C)c(=O)n(C)c4=O)c3Cl)c2Cl)ncc1CN1CC(O)C1 [Compound 1.080],10 to 1000 nM
10,COc1nc(-c2cccc(-c3cccc(NC(=O)c4cn(C)c(=O)n(C)c4=O)c3Cl)c2Cl)ncc1CNC[C@@H]1CCC(=O)N1 [Compound 1.081],< 10 nM
11,COc1nc(-c2cccc(-c3cccc(NC(=O)c4cn(C)c(=O)n(C)c4=O)c3C)c2Cl)ccc1CN1CC(C(=O)O)C1 [Compound 1.082],< 10 nM
12,COc1cc(-c2cccc(-c3cccc(NC(=O)c4cn(C)c(=O)n(C)c4=O)c3Cl)c2Cl)ncc1CN1CC(C)(C(=O)O)C1 [Compound 1.083],< 10 nM
13,COc1nc(-c2cccc(-c3cccc(NC(=O)c4cn(C)c(=O)n(C)c4=O)c3Cl)c2Cl)ccc1CN1CC(C(=O)O)C1 [Compound 1.084],< 10 nM
14,COc1nc(-c2cccc(-c3cccc(NC(=O)c4cn(C)c(=O)n(C)c4=O)c3Cl)c2Cl)ccc1CN1CC(C)(C(=O)O)C1 [Compound 1.085],< 10 nM
15,COc1cc(-c2cccc(-c3cccc(NC(=O)c4cn(C)c(=O)n(C)c4=O)c3Cl)c2Cl)ncc1CN1CC(C(=O)O)C1 [Compound 1.086],< 10 nM
16,COc1nc(-c2cccc(-c3cccc(NC(=O)c4cn(C)c(=O)n(C)c4=O)c3Cl)c2Cl)ccc1CN[C@@H]1CCOC[C@@H]1O [Compound 1.087],< 10 nM

# Now from value to compound:
row,IC50,Compound
1,< 10 nM,COc1nc(-c2cccc(-c3cccc(NC(=O)c4cn(C)c(=O)n(C)c4=O)c3Cl)c2Cl)ccc1CNC[C@@H]1CCC(=O)N1 [Compound 1.088]
2,< 10 nM,COc1nc(-c2cccc(-c3cccc(NC(=O)c4cn(C)c(=O)n(C)c4=O)c3Cl)c2Cl)ncc1CN[C@@H]1CCOC[C@@H]1O [Compound 1.089]
3,< 10 nM,COc1nc(-c2cccc(-c3cccc(NC(=O)c4cn(C)c(=O)n(C)c4=O)c3Cl)c2Cl)ccc1CN1CC(O)C1 [Compound 1.090]
4,< 10 nM,COc1nc(-c2cccc(-c3cccc(NC(=O)c4cn(C)c(=O)n(C)c4=O)c3Cl)c2Cl)cnc1CN1CCCC[C@H]1C(=O)O [Compound 1.091]
5,< 10 nM,COc1nc(-c2cccc(-c3cccc(NC(=O)c4cn(C)c(=O)n(C)c4=O)c3C)c2Cl)ccc1CN1CC2(CCNC2=O)C1 [Compound 1.092]
6,< 10 nM,COc1cc(-c2cccc(-c3cccc(NC(=O)c4cn(C)c(=O)n(C)c4=O)c3Cl)c2Cl)ncc1CNC[C@@H]1CCC(=O)N1 [Compound 1.093]
7,< 10 nM,COc1nc(-c2cccc(-c3cccc(NC(=O)c4cn(C)c(=O)n(C)c4=O)c3Cl)c2Cl)cnc1CN1CCCC[C@@H]1C(=O)O [Compound 1.094]
8,< 10 nM,COc1nc(-c2cccc(-c3cccc(NC(=O)c4cn(C)c(=O)n(C)c4=O)c3C)c2Cl)ccc1CN1CC(O)C1 [Compound 1.095]
9,< 10 nM,COc1nc(-c2cccc(-c3cccc(NC(=O)c4cn(C)c(=O)n(C)c4=O)c3C)c2Cl)ccc1CN1CC2(CCC(=O)N2)C1 [Compound 1.096]
10,< 10 nM,COc1cc(-c2cccc(-c3cccc(NC(=O)c4cn(C)c(=O)n(C)c4=O)c3Cl)c2Cl)ncc1CN[C@@H]1CCOC[C@@H]1O [Compound 1.097]
11,< 10 nM,COc1nc(-c2cccc(-c3cccc(NC(=O)c4cn(C)c(=O)n(C)c4=O)c3Cl)c2Cl)cnc1CN1CC(O)C1 [Compound 1.098]
12,< 10 nM,COc1nc(-c2cccc(-c3cccc(NC(=O)c4cn(C)c(=O)n(C)c4=O)c3Cl)c2Cl)cnc1CN1CC(C)(C(=O)O)C1 [Compound 1.099]
13,< 10 nM,COc1nc(-c2cccc(-c3cccc(NC(=O)c4cn(C)c(=O)n(C)c4=O)c3Cl)c2Cl)cnc1CN1CC(C(=O)O)C1 [Compound 1.100]
14,< 10 nM,COc1nc(-c2cccc(-c3cccc(NC(=O)c4cn(C)c(=O)n(C)c4=O)c3Cl)c2Cl)cnc1CN1CC2(CCC(=O)N2)C1 [Compound 1.101]
15,< 10 nM,COc1nc(-c2cccc(-c3cccc(NC(=O)c4cn(C)c(=O)n(C)c4=O)c3Cl)c2Cl)cnc1CN1CC2(CCNC2=O)C1 [Compound 1.102]
